From a melting point compilation (Tetko et al.; mined from patent text by program, amines drawn as free bases though some values may be those of a salt)

melting point [°C]	Structure (SMILES)
149 to 151	CCCCCCCCCCCC(=O)Oc1ccc2cc(C(=N)N)ccc2c1
217 to 219	c1cnn(Cc2ccc3c(c2)-c2[nH]nc(-c4ccsc4)c2C3)n1
182 to 187	CCN(CC)CC(=O)OC1CC2(C)C(C(C)=O)CCC2C2CCC3CC(O)C(Cl)CC3(C)C12 (stereo unspecified)
228	CC(=O)OS(=O)(=O)OC(C)=O
176 to 178	O=Cc1cc(Cl)c(O)c(O)c1Cl
189 to 191	COc1cc(N)ccc1S(=O)(=O)Nc1ccccc1C
168 to 169	CCOC(=O)Cc1ccc(Cc2nc3n(-c4c(Cl)cccc4Cl)[nH]c(C(C)C)c-3c(=O)n2)cc1
64 to 72	O=C(c1ccccc1)N1CCSc2cccc(Cl)c2C1
> 250	CC(C)n1nc(-c2cc(C(N)=O)c(=O)[nH]c2-c2ccccc2)ccc1=O
101 to 103	Oc1ccc(CC(=S)Nc2ncc(-c3ccc(O)cc3)nc2Cc2ccccc2)cc1
183 to 185	CS(=O)(=O)c1ccc(C2=C(c3ccccc3)CN(C3CCCCC3)C2=O)cc1
162 to 165	C=CC(=O)N1CCc2cc(OC)c(OC)cc2C12CCC(C(=O)OCC)(C(=O)OCC)CC2C1c2cc(OC)c(OC)cc2CCN1C(C)=O (stereo unspecified)
156 to 159	CC(=O)N1CCC(Br)(C(=O)c2ccc(F)cc2)CC1
279 to 281	CN(Cc1cccc2c1C(=O)N(C1CCC(=O)NC1=O)C2=O)C(=O)Nc1ccc(Cl)cc1 (stereo unspecified)
77 to 78	Nc1c(Cl)cc(Cl)c(-c2nsc(C(F)(F)F)c2Cl)c1Br
100 to 101	CN(C(CCN1C(=O)c2ccccc2C1=O)C(=O)NO)S(=O)(=O)c1ccc(Oc2ccc(F)cc2)cc1 (stereo unspecified)
287 to 288	CS(=O)(=O)c1ccc(-c2sc(Nc3cc(Cl)cc(Cl)c3)nc2-c2ccc(F)cc2)cc1
158 to 160	COc1ccc([N+](=O)[O-])cc1CNC(C)=O
135 to 137	CCCCc1nc(C)n2nc(S)nc2c1Cc1ccc(-c2ccccc2)c(-c2nnn[nH]2)c1
150 to 153	O=C1CC2(CC=CC2)CC(=O)N1
234 to 238	O=C(NC(P(=O)(O)O)P(=O)(O)O)c1cc2ccccc2s1
290	O=c1[nH]c2c3ccccc3c(=CO)c2n2ccnc12
239 to 242	COc1cccc2c(=O)[nH]c(C3CCN(C)CC3)cc12
209 to 210	CC1(c2ccc(S(=O)(=O)Cl)cc2)Cc2cc(OCC(=O)O)c(Cl)c(Cl)c2C1=O (stereo unspecified)

melting point [°C]	Structure (SMILES)
153 to 154	CCCCCCC#CC(O)C1=Nc2ccc(F)cc2C(=O)C1C (stereo unspecified)
263	NS(=O)(=O)c1ccc(-c2noc(-c3cnc4ccc(-c5ccc(Cl)cc5)cn34)n2)s1
120 to 122	Clc1ccc(CNc2cc(Cl)nc(Cl)n2)cc1
194	Clc1cc(-c2cnc3c(c2)N(Cc2c(Cl)cccc2Cl)CCN3)ccn1
133 to 139	CC(Oc1ccc2nc(NC(=O)NCCN3CCC(Cc4ccccc4)CC3)sc2c1)c1c(Cl)ccc(F)c1Cl (stereo unspecified)
169 to 170	Cc1cc(NC(=O)C(=O)N2CCCCC2)cc(C)c1S(=O)(=O)C[N+](=O)[O-]
> 250	COc1cc2[nH]c(=O)c(-c3csc(-c4ccncc4)n3)c(N)c2cc1OC
232 to 233	CC(C)(C)c1ccc(C(=O)Nc2cn3nc(NCc4cccnc4)ccc3n2)cc1
186 to 189	CSc1csc(NC(=O)c2ccc(OC(C)=O)cc2)n1
123 to 125	Cc1ccc(-c2c(C(=O)NCc3cc(C(F)(F)F)cc(C(F)(F)F)c3)n(C[C@H](C)CO)c(=O)c3ncccc23)cc1
52	CNc1onc2c1CCC2
79 to 82	N#CC1=C(Nc2ccc(F)cc2)CCCC1
78 to 79	Cc1oc(-c2ccccc2)nc1CCOc1ccc(CCCBr)cc1
182 to 185	Cc1nc(N)nc(N)c1/C=C/C(C)(C)c1ccc(C(F)(F)F)cc1
181 to 185	CCCCCCOc1ccc(C=CC(C)=CC=CC(=O)O)cc1
156 to 161	CC(N=Cc1ccc(O)cc1)c1ccc(Br)cc1 (single isomer, unassigned; (-))
119 to 120	Cc1cccc(C(NCC(=O)Nc2c(C(C)C)cccc2C(C)C)c2ccccc2)c1 (stereo unspecified)
265 to 267	O=c1c2c(O)cccc2[nH]c2c([N+](=O)[O-])ccc(Cl)c12
132 to 133	COc1cccc(CC(=O)O)c1OCCCc1cn(-c2ccc(C)cn2)nc1C(C)C
160 to 161	CCCc1c(OCc2ccc(CSc3nnn[nH]3)cc2)ccc(C(C)=O)c1O
79 to 80	CCC(=O)c1ccc2cc(OC(C)C)ccc2c1
139 to 141	Nc1nc(NCCNc2ccccc2)nc(-c2cc(Cl)ccc2Cl)n1
249 to 251	O=C(NCc1ccccc1)c1[nH]c2ccc(Cl)cc2c1S(=O)(=O)c1ccccc1
186 to 187	O=C(O)c1cccc2c1CCc1ccccc1S2

melting point [°C]	Structure (SMILES)
214 to 215	COc1cc(OC)c2c(=O)[nH]c(-c3ccc(OCCNC(C)C)c(-c4ccc(C(=O)N(C)C)cc4)n3)nc2c1
238 to 240	COc1ccc2c(c1)OCC(/C=C/C=C/C=C/C(=O)O)=C2
94 to 97	COC(=O)C1CSc2sccc2C1=O (stereo unspecified)
111 to 114	COC(=O)c1ccc(N=Cc2cccc(F)c2)cn1
221 to 223	COc1cccc2c1S(=O)(=O)NC(C1CCCCC1)N2 (stereo unspecified)
230	CN1CCC(NC(c2cccc(O)c2)c2nc3ccccc3[nH]2)CC1 (stereo unspecified)
268 to 270	CCn1c(=O)[nH]c2cnc(-c3ccccc3)nc21
265 to 267	COc1ccc(C(=O)Oc2ccc(C(=O)O)cc2)cc1C12CC3CC(CC(C3)C1)C2
108 to 111	O=C(Nc1ccccc1S(=O)(=O)NCCCn1cccn1)c1cccc(C(F)(F)F)c1
149 to 150	CCOC(=O)N1CCN(c2nc(N(C(C)=O)C3CC3)ccc2N)CC1
108 to 109	COCCOCCOCCn1c2ccc(C=O)cc2c2cc(C=O)ccc21
199	COc1cc(C)ccc1S(=O)(=O)NC(=O)C(c1ccc2c(c1)OCO2)c1cn(C)c2cc(C(=O)O)ccc12 (stereo unspecified)
112 to 113	O=C1N(c2ccc(Cl)c(Cl)c2)CCON1c1ccccc1
132 to 133	CC(C)CCSc1cc(C(=O)O)cc(N)c1Oc1ccccc1
93	CSN(C)C(=O)Nc1ccc(Cl)c(Cl)c1
234 to 236	COc1cc2c(cc1OC)-c1c(C)nc(Nc3c(C)cccc3C)n1CC2
334 to 336	O=c1[nH]c2cc(Cl)ccc2c(=O)c2c(C(F)(F)F)n[nH]c12
154 to 156	Nc1ncc(-c2ccc3c(c2)CCC(NCC(F)(F)F)CC3)c(N)n1 (stereo unspecified)
138 to 140	CSc1cn(C)c2sccc2c1=O
135 to 136	O=C(Nc1ccc(Cl)c(C(F)(F)F)c1)N1COc2cc(OCc3ccccc3)ccc21
127 to 131	COc1ccc(C(=O)Cc2c(Cl)cncc2Cl)c2c1OC(C)(C)C2
218 to 219	Cc1oc2cc3sc4ccccc4c3c(-c3cc(I)c(O[C@H](C)C(=O)O)c(I)c3)c2c1C
199	Cn1cc(S(C)=O)c(=O)c2sccc21 (stereo unspecified)
195 to 197	O=C(NNC(=O)c1occ(-c2ccccc2)c1-c1ccccc1)c1ccsc1

melting point [°C]	Structure (SMILES)
92	CC(C)NCC(O)COC1c2ccccc2C(=O)N1c1ccccc1 (stereo unspecified)
131 to 132	Cc1nc(CCCCn2cnc3c2c(=O)n(C)c(=O)n3C)no1
309 to 310	NS(=O)(=O)c1ccc(NC(=O)c2ccc(F)cc2SSc2cc(F)ccc2C(=O)Nc2ccc(S(N)(=O)=O)cc2)cc1
250	CC(C)c1cccc(C(C)C)c1NC(=O)CN1C(=O)N(c2ccc(S(C)(=O)=O)cc2)C2(CCCCC2)C1=O
81 to 82	CCOC(=O)C(=NO)c1ccc(OC)cc1
193 to 194	O=C(O)c1ccc(OCCCON=Cc2cn(Cc3ccccc3)c3ccccc23)c(-c2ccc(C(F)(F)F)cc2)c1
118	O=[N+]([O-])c1cccc(Oc2cc(Oc3cccc([N+](=O)[O-])c3)cc(C(F)(F)F)c2)c1
164 to 167	Cc1c(/C=C2\COc3ccc4ccccc4c3C2=O)ncn1C(c1ccccc1)(c1ccccc1)c1ccccc1
189 to 190	Clc1cc(Cl)cc(-c2cc3cc(Cl)cc(Cl)c3[nH]2)c1
72 to 73	CC(=O)NCCc1coc2ccc(OCC#N)cc12
100 to 101	NC(=O)CC(O)CCCCCNC(=O)OCc1ccccc1 (stereo unspecified)
145 to 149	CCCN(C(C)=O)c1cccc(-c2ccc3nnc(C)n3n2)c1
108 to 111	NS(=O)(=O)c1sccc1C(F)=C(F)C(F)(F)F
172 to 173	CC(C)(C)c1ccc(-c2cc(=O)cc(N3CCOCC3)s2)cc1
206 to 207	CC(C)(C)c1cc(NC(=O)Nc2ccc(OCCN3CCOCC3)c3ccccc23)[nH]n1
55 to 56	C#CCSc1ccncc1
260 to 264	Cc1ccc(Nc2nc(-c3ccccc3)cs2)nc1
138 to 140	CC(C)(C)CNc1cc(N2CCNCC2)nc(NCC(C)(C)C)n1
264 to 267	COc1cc(Nc2c(C#N)cnc3cc(-c4ccc(CO)cc4)ccc23)c(Cl)cc1Cl
131	O=C1CCCc2c1[nH]c1ccc(F)cc21
121	CNC(=S)C1(c2cccc(C)n2)CCCS1 (stereo unspecified)
123 to 124	COc1ccc(-c2coc3ccc(-c4nnc(SCc5cccc(C)c5)o4)cc23)cc1
175 to 176	Cc1c(C)c2c(c(C)c1O)SC(c1ccccc1O)O2 (stereo unspecified)

Structure (SMILES)	melting point [°C]
CC(=O)OC1CC2(C)C(=O)CCC2C2CC=C3CC(O)CCC3(C)C12 (stereo unspecified)	155 to 156
Cc1c(CCN(C)C)c2cc(S(=O)(=O)c3ccccc3)ccc2n1C	170 to 172
O=C1C(=Cc2ccc(Cl)cc2)N2CCC1CC2	108 to 110
NCC(CC(=O)O)C1CCC1 (stereo unspecified)	115 to 117
O=C(OCC1CC1)c1ncn2c1C1C=CCN1C(=O)c1c(Cl)cccc1-2 (stereo unspecified)	189 to 190
N#CC1CN1C(=O)CCC(N)=O (stereo unspecified)	68 to 72
